“And” between values parts separate entries of the source, which are not always exact repeats. Identical values can stand only once. Toxic doses and inconclusive results are not listed.
System: L1210 leukemia ip in BDF1 mice, survival T/C
Test: NCI In Vivo Anticancer Drug Screen. Data for tumor model L1210 Leukemia (intraperitoneal) in B6D2F1 (BDF1) mice
Conditions: endpoint: mean survival time, higher = longer survival
Procedure, shortened: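 Mice bearing the transplanted tumor received compound or vehicle. Survival of the treated group was divided by that of the vehicle-treated control group to give the ratio.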

[1] = dose: 100.0 mg/kg/injection, schedule: Q01DX009 (ip), vehicle: Klucel (hydroxypropylcellulose) (HPC)
[2] = dose: 100.0 mg/kg/injection, schedule: Q04DX003 (ip), vehicle: Klucel (hydroxypropylcellulose) (HPC)
[3] = dose: 200.0 mg/kg/injection, schedule: Q01DX009 (ip), vehicle: Klucel (hydroxypropylcellulose) (HPC)
[4] = dose: 200.0 mg/kg/injection, schedule: Q04DX003 (ip), vehicle: Klucel (hydroxypropylcellulose) (HPC)
[5] = dose: 400.0 mg/kg/injection, schedule: Q01DX009 (ip), vehicle: Klucel (hydroxypropylcellulose) (HPC)
[6] = dose: 400.0 mg/kg/injection, schedule: Q04DX003 (ip), vehicle: Klucel (hydroxypropylcellulose) (HPC)
[7] = dose: 100.0 mg/kg/injection, schedule: Q04DX003 (ip), vehicle: saline
[8] = dose: 100.0 mg/kg/injection, schedule: Q01DX001 (ip), vehicle: saline
[9] = dose: 200.0 mg/kg/injection, schedule: Q01DX001 (ip), vehicle: saline
[10] = dose: 400.0 mg/kg/injection, schedule: Q01DX001 (ip), vehicle: saline
[11] = dose: 100.0 mg/kg/injection, schedule: Q04DX002 (ip), vehicle: Klucel (hydroxypropylcellulose) (HPC)
[12] = dose: 200.0 mg/kg/injection, schedule: Q04DX002 (ip), vehicle: Klucel (hydroxypropylcellulose) (HPC)
[13] = dose: 400.0 mg/kg/injection, schedule: Q04DX002 (ip), vehicle: Klucel (hydroxypropylcellulose) (HPC)
[14] = dose: 100.0 mg/kg/injection, schedule: Q01DX009 (ip), vehicle: saline
[15] = dose: 100.0 mg/kg/injection, schedule: Q04DX003 (ip), vehicle: saline with Tween-80
[16] = dose: 200.0 mg/kg/injection, schedule: Q04DX003 (ip), vehicle: saline with Tween-80
[17] = dose: 400.0 mg/kg/injection, schedule: Q04DX003 (ip), vehicle: saline with Tween-80
[18] = dose: 100.0 mg/kg/injection, schedule: Q01DX001 (ip), vehicle: carboxymethylcellulose (CMC)
[19] = dose: 200.0 mg/kg/injection, schedule: Q01DX001 (ip), vehicle: carboxymethylcellulose (CMC)
[20] = dose: 400.0 mg/kg/injection, schedule: Q01DX001 (ip), vehicle: carboxymethylcellulose (CMC)

O=C(O)CCC(NC(=O)c1ccc(Cc2ccc(NC(=O)OCc3ccccc3)cc2)cc1)C(=O)O (centres undefined)
T/C [1]: 96 % of control
T/C [2]: 97 % of control
T/C [3]: 95 % of control
T/C [4]: 94 % of control
T/C [5]: 93 % of control
T/C [6]: 103 % of control

S=C1CCNCC1
T/C [7]: 88 % of control

c1ccc(CCN2CCCC2)nc1
T/C (dose: 12.5 mg/kg/injection, schedule: Q04DX002 (ip), vehicle: saline with Tween-80): 103 % of control
T/C (dose: 25.0 mg/kg/injection, schedule: Q04DX002 (ip), vehicle: saline with Tween-80): 98 % of control

COc1cc(/C=C2\CCC/C(=C\c3ccc(O)c(OC)c3)C2=O)ccc1O
T/C [2]: 93 % of control
T/C [4]: 87 % of control

O=C(COc1ccc(Cl)c(Cl)c1)NCc1ccc([N+](=O)[O-])cc1
T/C [2]: 90 % of control
T/C [4]: 92 % of control
T/C [6]: 88 % of control

C=CCc1ccc(OC(C)=O)c(OC)c1
T/C [8]: 96 % of control
T/C [9]: 98 % of control
T/C [10]: 108 % of control

COC(=O)/C=C(/Nc1cccc2ccccc12)C(=O)OC
T/C (dose: 50.0 mg/kg/injection, schedule: Q01DX001 (ip), vehicle: Klucel (hydroxypropylcellulose) (HPC)): 102 % of control
T/C (dose: 100.0 mg/kg/injection, schedule: Q01DX001 (ip), vehicle: Klucel (hydroxypropylcellulose) (HPC)): 96 % of control
T/C (dose: 200.0 mg/kg/injection, schedule: Q01DX001 (ip), vehicle: Klucel (hydroxypropylcellulose) (HPC)): 114 % of control

CC(C)(C)C(=O)NO
T/C [11]: 110 % of control
T/C [12]: 90 % of control
T/C [13]: 102 % of control

Cc1ccc(NC(=O)C(c2ccccc2)c2ccccc2)cc1Cl
T/C [1]: 108 % of control
T/C [2]: 88 % of control
T/C [3]: 95 % of control
T/C [4]: 91 % of control
T/C [5]: 108 % of control
T/C [6]: 101 % of control

CC(C(Nc1ccc(C(=O)O)cc1)C(F)(F)C(F)(F)C(F)(F)F)[N+](=O)[O-] (centres undefined)
T/C [2]: 88 % of control
T/C [4]: 89 % of control
T/C [6]: 98 % of control

CC(=NCC(=O)O)c1ccccc1
T/C (dose: 25.0 mg/kg/injection, schedule: Q01DX009 (ip), vehicle: saline): 104 % of control
T/C (dose: 50.0 mg/kg/injection, schedule: Q01DX009 (ip), vehicle: saline): 94 % of control
T/C [14]: 90 % of control
T/C [7]: 100 % of control

CCOC(=O)C(C(C)=O)C(CCCCO)C(C(C)=O)C(=O)OCC (centres undefined)
T/C [8]: 97 % of control
T/C [9]: 101 % of control
T/C [10]: 94 % of control

Cc1ccc(NC(=O)OCCSc2ccc(Cl)cc2)c([N+](=O)[O-])c1
T/C [11]: 99 % of control
T/C [12]: 99 % of control
T/C [13]: 89 % of control

Cc1cnc2ccccc2c1
T/C [8]: 100 % of control
T/C [9]: 100 % of control

O=COCC1CCC(NC(=O)N(CCCl)N=O)CC1 (centres undefined)
T/C (dose: 2.6 mg/kg/injection, schedule: Q01DX001 (ip), vehicle: Klucel (hydroxypropylcellulose) (HPC)): 103 % of control
T/C (dose: 4.0 mg/kg/injection, schedule: Q01DX001 (ip), vehicle: Klucel (hydroxypropylcellulose) (HPC)): 111 % of control
T/C (dose: 6.0 mg/kg/injection, schedule: Q01DX001 (ip), vehicle: Klucel (hydroxypropylcellulose) (HPC)): 123 % of control
T/C (dose: 9.0 mg/kg/injection, schedule: Q01DX001 (ip), vehicle: Klucel (hydroxypropylcellulose) (HPC)): 227 % of control
T/C (dose: 12.0 mg/kg/injection, schedule: Q01DX001 (ip), vehicle: Klucel (hydroxypropylcellulose) (HPC)): 293 % of control and 319 % of control
T/C (dose: 15.0 mg/kg/injection, schedule: Q01DX001 (ip), vehicle: Klucel (hydroxypropylcellulose) (HPC)): 273 % of control
T/C (dose: 18.0 mg/kg/injection, schedule: Q01DX001 (ip), vehicle: Klucel (hydroxypropylcellulose) (HPC)): 328 % of control
T/C (dose: 26.0 mg/kg/injection, schedule: Q01DX001 (ip), vehicle: Klucel (hydroxypropylcellulose) (HPC)): 280 % of control

O=C(Nc1ccccc1)OCCc1c2ccccc2[n+]([O-])c2ccccc12
T/C [15]: 91 % of control
T/C [16]: 91 % of control
T/C [17]: 102 % of control

CN(C(=O)N(C)S(=O)(=O)c1ccccc1)S(=O)(=O)c1ccccc1
T/C (dose: 75.0 mg/kg/injection, schedule: Q04DX003 (ip), vehicle: Klucel (hydroxypropylcellulose) (HPC)): 100 % of control
T/C (dose: 150.0 mg/kg/injection, schedule: Q04DX003 (ip), vehicle: Klucel (hydroxypropylcellulose) (HPC)): 101 % of control
T/C (dose: 300.0 mg/kg/injection, schedule: Q04DX003 (ip), vehicle: Klucel (hydroxypropylcellulose) (HPC)): 94 % of control

CCC1SC(=S)N(C(=O)c2ccc([N+](=O)[O-])cc2)C1CC (centres undefined)
T/C (dose: 25.0 mg/kg/injection, schedule: Q04DX002 (ip), vehicle: Klucel (hydroxypropylcellulose) (HPC)): 111 % of control
T/C (dose: 50.0 mg/kg/injection, schedule: Q04DX002 (ip), vehicle: Klucel (hydroxypropylcellulose) (HPC)): 95 % of control

COC(=O)c1ccccc1NC(OC)c1cccc([N+](=O)[O-])c1 (centres undefined)
T/C (dose: 100.0 mg/kg/injection, schedule: Q01DX001 (ip), vehicle: saline with Tween-80): 90 % of control
T/C (dose: 100.0 mg/kg/injection, schedule: Q04DX002 (ip), vehicle: saline with Tween-80): 93 % of control and 89 % of control
T/C [15]: 92 % of control
T/C (dose: 200.0 mg/kg/injection, schedule: Q01DX001 (ip), vehicle: saline with Tween-80): 92 % of control
T/C (dose: 200.0 mg/kg/injection, schedule: Q04DX002 (ip), vehicle: saline with Tween-80): 86 % of control and 90 % of control
T/C [16]: 92 % of control
T/C (dose: 400.0 mg/kg/injection, schedule: Q01DX001 (ip), vehicle: saline with Tween-80): 87 % of control
T/C (dose: 400.0 mg/kg/injection, schedule: Q04DX002 (ip), vehicle: saline with Tween-80): 87 % of control
T/C [17]: 89 % of control

CCOC(=O)CN1C(C)C1C(C)C (centres undefined)
T/C [2]: 114 % of control
T/C [4]: 100 % of control
T/C [6]: 104 % of control

CCCCN(C)N=Nc1ccccc1C(=O)NN
T/C [18]: 96 % of control
T/C [19]: 107 % of control
T/C [20]: 113 % of control

CN1CCN(c2nc3ccccc3n3nnnc23)CC1
T/C (dose: 37.5 mg/kg/injection, schedule: Q04DX003 (ip), vehicle: saline): 104 % of control
T/C (dose: 75.0 mg/kg/injection, schedule: Q04DX003 (ip), vehicle: saline): 107 % of control

CCOC(=O)C1=Cc2ccccc2OC1
T/C (dose: 75.0 mg/kg/injection, schedule: Q01DX001 (ip), vehicle: saline): 94 % of control
T/C (dose: 150.0 mg/kg/injection, schedule: Q01DX001 (ip), vehicle: saline): 96 % of control
T/C (dose: 300.0 mg/kg/injection, schedule: Q01DX001 (ip), vehicle: saline): 91 % of control

CCCCCCC(O)C/C=C\CCCCCCCCO (centres undefined)
T/C [14]: 121 % of control
T/C [7]: 101 % of control
T/C (dose: 200.0 mg/kg/injection, schedule: Q01DX009 (ip), vehicle: saline): 115 % of control
T/C (dose: 200.0 mg/kg/injection, schedule: Q04DX003 (ip), vehicle: saline): 99 % of control
T/C (dose: 400.0 mg/kg/injection, schedule: Q01DX009 (ip), vehicle: saline): 103 % of control
T/C (dose: 400.0 mg/kg/injection, schedule: Q04DX003 (ip), vehicle: saline): 104 % of control

Cc1ccc(NC(=O)Oc2ccc(Br)cc2)c([N+](=O)[O-])c1
T/C [11]: 99 % of control
T/C [12]: 115 % of control
T/C [13]: 92 % of control

O=C1Cc2ncccc2N1
T/C [8]: 107 % of control
T/C [9]: 100 % of control
T/C [10]: 114 % of control

O=C(Oc1ccccc1)c1cc(Br)ccc1O
T/C [18]: 97 % of control
T/C [19]: 95 % of control
T/C [20]: 100 % of control

O=C1NC(=O)C(c2ccc(O)cc2)N1 (centres undefined)
T/C (dose: 50.0 mg/kg/injection, schedule: Q01DX001 (ip), vehicle: saline): 105 % of control
T/C [8]: 100 % of control
T/C (dose: 100.0 mg/kg/injection, schedule: Q01DX009 (ip), vehicle: saline with Tween-80): 91 % of control
T/C [15]: 103 % of control
T/C [9]: 97 % of control
T/C (dose: 200.0 mg/kg/injection, schedule: Q01DX009 (ip), vehicle: saline with Tween-80): 87 % of control
T/C [16]: 100 % of control
T/C [10]: 108 % of control
T/C [17]: 94 % of control

Cc1ccc(Nc2c3ccccc3nc3ccccc23)c(C)c1
T/C [2]: 96 % of control
T/C [4]: 100 % of control

N#C/C(=N\O)C(N)=O
T/C [8]: 102 % of control and 103 % of control
T/C [9]: 98 % of control and 107 % of control
T/C [10]: 93 % of control and 107 % of control
